The results in this text go back to patent US9579381B2 (priority 2012, dated 2017).

This assay deals with H37Rv S315T (KatG mutant). It counts as cell-based, Mycobacterium tuberculosis.

Take `NNC(=O)c1ccncc1` [INH, Isoniazid]: the “dependence of activity on KatG” value is given as “dependent upon KatG”.
